Calls of active or inactive are those of the source. The calls are words filed in the database; no cut-off is given here.
Experiments:
Staphylococcus aureus [1] = assay: Antibacterial activity against methicillin-resistant Staphylococcus aureus ATCC 33591 in presence of Fe2+ (reference value: 1 ug/ml); type: functional
[2] = Selectivity index, ratio of HC50 for hemolytic activity in rabbit RBC to MIC for antibacterial activity against Staphylococcus aureus; type: toxicity, cell-based; conditions: rabbit red blood cells
Staphylococcus aureus [3] = assay: Antibacterial activity against methicillin-resistant Staphylococcus aureus ATCC 33591 in presence of Ca2+ (reference value: 1 ug/ml); type: functional
Staphylococcus aureus [4] = assay: Antibacterial activity against methicillin-resistant Staphylococcus aureus ATCC 43300 at 36.5 degreeC (reference value: 0.5 ug/ml); type: functional
Staphylococcus aureus [5] = assay: Antibacterial activity against methicillin-resistant Staphylococcus aureus CGMCC1.12409 infected in mouse model assessed as reduction in bacterial load at infection site at 5 mg/kg measured for 5 days relative to control; type: functional; design: scale not given: the % may be the effect or the level left; conditions: time 5 day
Staphylococcus aureus [6] = assay: Antibacterial activity against Staphylococcus aureus CGMCC1.8721 in presence of Fe3+ (reference value: 0.5 ug/ml); type: functional
Staphylococcus aureus [7] = assay: Antibacterial activity against methicillin-resistant Staphylococcus aureus ATCC 33591 in presence of H2PO4- (reference value: 1 ug/ml); type: functional
Staphylococcus aureus [8] = assay: Antibacterial activity against Staphylococcus aureus CGMCC1.8721; type: functional
Staphylococcus aureus [9] = assay: Antibacterial activity against methicillin-resistant Staphylococcus aureus CGMCC1.12409 in presence of Mg2+ (reference value: 0.5 ug/ml); type: functional
Staphylococcus aureus [10] = assay: Induction of membrane depolarization in Staphylococcus aureus CGMCC1.8721 by DiSC3(5) dye based analysis; type: functional, organism-based
Staphylococcus aureus [11] = assay: Bactericidal activity against methicillin-resistant Staphylococcus aureus ATCC 33591 by CLSI based method; type: functional
Staphylococcus aureus [12] = assay: Antibacterial activity against methicillin-resistant Staphylococcus aureus CGMCC1.12409 infected in mouse model assessed as reduction in abscesses size at 5 to 10 mg/kg measured for 5 days; type: functional, organism-based; conditions: dose 5-10 mg/kg, time 5.0 day
Staphylococcus aureus [13] = assay: Antibacterial activity against methicillin-resistant Staphylococcus aureus ATCC 43300 in presence of K+ (reference value: 0.5 ug/ml); type: functional
Staphylococcus aureus [14] = assay: Antibacterial activity against methicillin-resistant Staphylococcus aureus CGMCC1.12409 infected in mouse model assessed as reduction in bacterial clones at 5 to 10 mg/kg measured for 5 days; type: functional, organism-based; conditions: dose 5-10 mg/kg, time 5.0 day
Staphylococcus aureus [15] = assay: Antibacterial activity against Staphylococcus aureus CGMCC1.8721 in presence of dNTP; type: functional, organism-based
Staphylococcus aureus [16] = assay: Antibacterial activity against Staphylococcus aureus CGMCC1.8721 in presence of Ca2+ (reference value: 0.5 ug/ml); type: functional
Staphylococcus aureus [17] = assay: Antibacterial activity against methicillin-resistant Staphylococcus aureus CGMCC1.12409 in presence of H2PO4- (reference value: 0.5 ug/ml); type: functional
Staphylococcus aureus [18] = assay: Induction of morphological change in Staphylococcus aureus CGMCC1.8721 assessed as appearance of atrophy at MIC by […] SEM analysis; type: functional, organism-based
Staphylococcus aureus [19] = assay: Antibacterial activity against methicillin-resistant Staphylococcus aureus ATCC 33591 at 37.5 degreeC (reference value: 1 ug/ml); type: functional
Staphylococcus aureus [20] = assay: Induction of morphological change in Staphylococcus aureus CGMCC1.8721 assessed as leakage of intracellular components at 4 times MIC by […] SEM analysis; type: functional, organism-based
Staphylococcus aureus [21] = assay: Antibacterial activity against methicillin-resistant Staphylococcus aureus ATCC 33591 at pH 6.5 (reference value: 1 ug/ml); type: functional
Staphylococcus aureus [22] = assay: Antibacterial activity against methicillin-resistant Staphylococcus aureus ATCC 43300 at pH 6.5 (reference value: 0.5 ug/ml); type: functional
Staphylococcus aureus [23] = assay: Antibacterial activity against Staphylococcus aureus CGMCC1.8721 in presence of Fe2+ (reference value: 0.5 ug/ml); type: functional
Staphylococcus aureus [24] = assay: Inhibition of metabolic activity in Staphylococcus aureus CGMCC1.8721; type: functional, organism-based
HepG2 = assay: Cytotoxicity against human HepG2 cells at 40 uM by CCK8 assay relative to control; type: toxicity, cell-based; conditions: hepg2, 40 µM
Staphylococcus aureus [25] = assay: Antibacterial activity against Staphylococcus aureus CGMCC1.8721 in presence of ATP; type: functional, organism-based
Staphylococcus aureus [26] = assay: Antibacterial activity against Staphylococcus aureus CGMCC1.8721 in presence of H2PO4- (reference value: 0.5 ug/ml); type: functional
Staphylococcus aureus [27] = assay: Antibacterial activity against methicillin-resistant Staphylococcus aureus CGMCC1.12409 in presence of K+ (reference value: 0.5 ug/ml); type: functional
Staphylococcus aureus [28] = assay: Antibacterial activity against methicillin-resistant Staphylococcus aureus CGMCC1.12409; type: functional
Staphylococcus aureus [29] = assay: Antibacterial activity against methicillin-resistant Staphylococcus aureus CGMCC1.12409 at 36.5 degreeC (reference value: 0.5 ug/ml); type: functional
Staphylococcus aureus [30] = assay: Antibacterial activity against methicillin-resistant Staphylococcus aureus CGMCC1.12409 infected in mouse model assessed as reduction in abscesses in subcutaneous tissues at 10 mg/kg measured for 5 days; type: functional, organism-based; conditions: time 5.0 day
Staphylococcus aureus [31] = assay: Antibacterial activity against Staphylococcus aureus CGMCC1.8721 in presence of phosphatidylglycerol; type: functional, organism-based
Staphylococcus aureus [32] = assay: Antibacterial activity against methicillin-resistant Staphylococcus aureus ATCC 43300 in presence of Fe2+ (reference value: 0.5 ug/ml); type: functional
Staphylococcus aureus [33] = assay: Antibacterial activity against methicillin-resistant Staphylococcus aureus CGMCC1.12409 in presence of Ca2+ (reference value: 0.5 ug/ml); type: functional
Staphylococcus aureus [34] = assay: Antibacterial activity against methicillin-resistant Staphylococcus aureus ATCC 33591 at 36.5 degreeC (reference value: 1 ug/ml); type: functional
Staphylococcus aureus [35] = assay: Antibacterial activity against methicillin-resistant Staphylococcus aureus ATCC 43300 in presence of Zn2+ (reference value: 0.5 ug/ml); type: functional
Staphylococcus aureus [36] = assay: Antibacterial activity against Staphylococcus aureus CGMCC1.8721 in presence of PGN; type: functional, organism-based
Staphylococcus aureus [37] = assay: Antibacterial activity against methicillin-resistant Staphylococcus aureus ATCC 43300; type: functional
Staphylococcus aureus [38] = assay: Antibacterial activity against methicillin-resistant Staphylococcus aureus CGMCC1.12409 in presence of Fe2+ (reference value: 0.5 ug/ml); type: functional
Staphylococcus aureus [39] = assay: Antibacterial activity against methicillin-resistant Staphylococcus aureus ATCC 43300 in presence of H2PO4- (reference value: 0.5 ug/ml); type: functional
Staphylococcus aureus [40] = assay: Induction of resistance development in Staphylococcus aureus CGMCC1.8721 at sub-lethal concentration following serial passages for 30 days; type: functional, organism-based; conditions: time 30.0 day
Staphylococcus aureus [41] = assay: Antibacterial activity against Staphylococcus aureus CGMCC1.8721 at pH 6.5 (reference value: 0.5 ug/ml); type: functional
Staphylococcus aureus [42] = assay: Antibiofilm activity against Staphylococcus aureus CGMCC1.8721 by crystal violet staining based analysis; type: functional, organism-based
Staphylococcus aureus [43] = assay: Bactericidal activity against Staphylococcus aureus CGMCC1.8721 by CLSI based method; type: functional
Staphylococcus aureus [44] = assay: Antibacterial activity against methicillin-resistant Staphylococcus aureus CGMCC1.12409 infected in mouse model assessed as reduction in bacterial load at infection site at 10 mg/kg measured for 5 days relative to control; type: functional; design: scale not given: the % may be the effect or the level left; conditions: time 5 day

COc1ccc2[nH]c3c(CC[C@H](C)[C@H]4CC[C@H]5[C@@H]6[C@H](O)C[C@@H]7C[C@H](O)CC[C@]7(C)[C@H]6C[C@H](O)[C@]45C)[n+](Cc4ccc(Cl)cc4)ccc3c2c1.[Br-]
MIC (Staphylococcus aureus [1]): 1 µg/mL | selectivity ratio [2]: > 256 | MIC (Staphylococcus aureus [3]): 1 µg/mL | MIC (Staphylococcus aureus [4]): 0.5 µg/mL | Activity (Staphylococcus aureus [5]): 94.33% | MIC (Staphylococcus aureus [6]): 0.5 µg/mL | MIC (Staphylococcus aureus [7]): 1 µg/mL | MIC (Staphylococcus aureus [8]): 0.5 µg/mL | MIC (Staphylococcus aureus [9]): 1 µg/mL | Activity (Staphylococcus aureus [10]): Dose-dependent-effect | MBC (Staphylococcus aureus [11]): 2 µg/mL | Activity (Staphylococcus aureus [12]): Active | MIC (Staphylococcus aureus [13]): 0.5 µg/mL | Activity (Staphylococcus aureus [14]): Active | Activity (Staphylococcus aureus [15]): Active | MIC (Staphylococcus aureus [16]): 0.5 µg/mL | MIC (Staphylococcus aureus [17]): 1 µg/mL | Activity (Staphylococcus aureus [18]): Active | MIC (Staphylococcus aureus [19]): 1 µg/mL | Activity (Staphylococcus aureus [20]): Active | MIC (Staphylococcus aureus [21]): 1 µg/mL | MIC (Staphylococcus aureus [22]): 0.5 µg/mL | MIC (Staphylococcus aureus [23]): 0.5 µg/mL | inhibition (Staphylococcus aureus [24]): Dose-dependent-effect | Activity (HepG2): Non-toxic | Activity (Staphylococcus aureus [25]): Active | MIC (Staphylococcus aureus [26]): 0.5 µg/mL | MIC (Staphylococcus aureus [27]): 1 µg/mL | MIC (Staphylococcus aureus [28]): 0.5 µg/mL | MIC (Staphylococcus aureus [29]): 0.5 µg/mL | Activity (Staphylococcus aureus [30]): Active | Activity (Staphylococcus aureus [31]): inactive | MIC (Staphylococcus aureus [32]): 0.5 µg/mL | MIC (Staphylococcus aureus [33]): 1 µg/mL | MIC (Staphylococcus aureus [34]): 1 µg/mL | MIC (Staphylococcus aureus [35]): 0.5 µg/mL | Activity (Staphylococcus aureus [36]): Active | MIC (Staphylococcus aureus [37]): 0.5 µg/mL | MIC (Staphylococcus aureus [38]): 1 µg/mL | MIC (Staphylococcus aureus [39]): 0.5 µg/mL | Activity (Staphylococcus aureus [40]): inactive | MIC (Staphylococcus aureus [41]): 0.5 µg/mL | Activity (Staphylococcus aureus [42]): Dose-dependent-effect | MBC (Staphylococcus aureus [43]): 1 µg/mL | Activity (Staphylococcus aureus [44]): 98.55%
